Laboratory results taken from patent US9581594B2, “Porphyrin—modified antimicrobial peptides for application as indicators of microbial targets” (priority 2013, dated 2017).
Bridge positions count the residues as written; N and C are the ends. Ends that are not written are not given here.

What was measured:
[1] = type: physicochemical; details: for solubility with addition of 10% DMSO: 10% dimethylsulfoxide final concentration; for solubility in water: water / aqueous solution
Text: It is still insufficient to resolve spectrophotometric characteristics with […] as evidenced by the low absorbance intensity and indistinct bands in both absorbance and fluorescence characteristics (FIGS. 1A and 1B). […] In FIGS. 2A-2D, the more traditional Soret and Q-bands in the absorbance spectra are evident, and the expected two peak fluorescence emission spectra are observed. […] Each of the constructs has unique peak positions as well as varying extinction coefficients for the Soret and Q-bands. Fluorescence emission is also uniquely varying amongst the tracers. These factors tend to indicate the formation of unique complexes providing the potential desired for these materials.

E. coli = test: Microtiter plate absorbance/fluorescence analysis of interaction with bacterial cells (E. coli); type: cell-based
Experimental: (§1) C1TPP and C1TPP-modified antimicrobial peptides were evaluated in a microtiter plate format using a Tecan XSafire monochromator-based microplate reader. Absorbance measurements were collected between 380 and 800 nm at 2 nm resolution. Fluorescence measurements were collected at 2 nm resolution for emission between 550 and 800 nm with excitation at 415 nm and for excitation between 385 and 619 nm with emission at 730 nm.
(§2) The microtiter plate format described above was utilized for analysis of interactions between the porphyrin-AMP constructs and bacterial cells, specifically, E. coli and B. globigii. The bacterial cells utilized were collected at mid-log phase growth and rinsed with water to remove growth media. They were then resuspended in water at approximately 3.5×10^7 cfu/mL. Analyses looked at changes in fluorescence and absorbance for fixed cell concentrations with varying tracer concentrations as well as for fixed tracer concentrations with varying cell concentrations. FIGS. 3A and 3B present data for the interaction between C1TPP and the two cell types, with absorbance (A) and fluorescence (B) spectra for C1TPP in water (black, 10% DMSO) and in the presence of E. coli (dashes) and B. globigii (dots) at 1.8×10^6 cfu/mL.

B. globigii = test: Microtiter plate absorbance/fluorescence analysis of interaction with bacterial cells (B. globigii); type: cell-based
Experimental: as §1, §2

Molecule	solubility with addition of 10% DMSO [1]	solubility in water [1]	changes in fluorescence on interaction with cells (E. coli; E. coli cells)	changes in absorbance or fluorescence characteristics on interaction with cells (E. coli; E. coli cells, range of concentrations evaluated)	changes in fluorescence on interaction with cells (B. globigii; B. globigii cells)	changes in absorbance or fluorescence characteristics on interaction with cells (B. globigii; B. globigii cells, range of concentrations evaluated)	peak/trough pair in the Soret region of the absorbance difference spectrum (E. coli; in the presence of E. coli cells)	peak/trough pair in the Soret region of the absorbance difference spectrum (B. globigii; in the presence of B. globigii cells)
O=C(O)c1ccc(-c2c3nc(c(-c4ccccc4)c4ccc([nH]4)c(-c4ccccc4)c4nc(c(-c5ccccc5)c5ccc2[nH]5)C=C4)C=C3)cc1 [C1TPP, 5-mono(4-carboxyphenyl)-10,15,20-triphenyl porphine]	increased somewhat	minimally soluble	overall quench	did not produce concentration dependent changes	overall quench	did not produce concentration dependent changes		
C1-Bac: C1TPP covalently attached to Bactenecin (RLCRIVVIRVCR; cyclized via disulfide bridge) (disulfide 3-11 (inferred); also: C1TPP covalently attached, site not given here)	sufficient to maintain the solubility	precipitated from aqueous solution	noted for only the highest concentrations of tracer used		noted for only the highest concentrations of tracer used		476/432	476/432
